{"source": "paper PMC4097363", "about": "“Trace amines inhibit insect odorant receptor function through antagonism of the co-receptor subunit” (F1000Research, 2014)", "format_in_all_cases": "cell-based", "key": {"Agam\\Orco": {"target": "T1, Agam\\Orco (Anopheles gambiae, UniProt Q7QCC7)", "T1 sequence (Q7QCC7 1-478)": "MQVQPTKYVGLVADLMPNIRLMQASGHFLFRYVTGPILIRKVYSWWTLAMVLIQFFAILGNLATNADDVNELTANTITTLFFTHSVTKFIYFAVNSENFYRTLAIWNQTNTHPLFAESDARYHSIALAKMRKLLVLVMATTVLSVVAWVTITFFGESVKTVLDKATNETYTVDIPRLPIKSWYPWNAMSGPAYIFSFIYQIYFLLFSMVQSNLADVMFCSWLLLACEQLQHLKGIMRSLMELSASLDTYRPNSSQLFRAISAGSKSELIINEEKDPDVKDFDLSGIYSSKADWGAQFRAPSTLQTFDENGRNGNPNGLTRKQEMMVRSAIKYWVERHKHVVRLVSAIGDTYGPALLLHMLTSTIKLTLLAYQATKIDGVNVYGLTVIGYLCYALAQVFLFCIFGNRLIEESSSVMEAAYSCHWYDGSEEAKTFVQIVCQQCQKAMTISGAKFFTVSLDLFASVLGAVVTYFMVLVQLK", "assay": "Antagonism of OLC12 activation of Orco in Xenopus oocytes", "conditions": "30µM OLC12, 10µM tryptamine", "method": "(§1) Follicle cells were removed by treatment with collagenase B (Boehringer Mannheim) for 2 hours at room temperature. Capped cRNA encoding each OR subunit was generated using mMessage mMachine kits (Ambion). For heteromeric ORs, 25 ng of cRNA encoding each OR subunit was injected into Stage V-VI Xenopus oocytes. For expression of Orco homomers, 50 ng of cRNA was injected. Oocytes were incubated at 18°C in Barth's saline (in mM: 88 NaCl, 1 KCl, 2.4 NaHCO 3, 0.3 CaNO 3, 0.41 CaCl 2, 0.82 MgSO 4, 15 HEPES, pH 7.6, and 150µg/ml ceftazidime) for 2–5 days prior to electrophysiological recording.\n(§2) Odorant and Orco ligand induced currents were recorded under two-electrode voltage clamp, using an automated parallel electrophysiology system (OpusExpress 6000A, Molecular Devices). Oocytes were perfused with ND96 (in mM: 96 NaCl, 2 KCl, 1 CaCl 2, 1 MgCl 2, 5 HEPES, pH 7.5). Orco ligands were prepared as 50 or 100 mM stock solutions in DMSO and then diluted into ND96 on the day of the experiment. Odorants were prepared as 100 mM stock solutions in DMSO and then diluted into ND96. Unless otherwise noted, applications were for 60 sec at a flow rate of 1.0 ml/min, with extensive washing in ND96 at 4.6 ml/min between applications. Micropipettes were filled with 3 M KCl and had resistances of 0.2–2.0 MΩ. The holding potential was -70 mV. […]"}, "Dmel\\Orco": {"target": "T2, Dmel\\Orco (Drosophila melanogaster, UniProt Q9VNB5)", "T2 sequence (Q9VNB5 1-486)": "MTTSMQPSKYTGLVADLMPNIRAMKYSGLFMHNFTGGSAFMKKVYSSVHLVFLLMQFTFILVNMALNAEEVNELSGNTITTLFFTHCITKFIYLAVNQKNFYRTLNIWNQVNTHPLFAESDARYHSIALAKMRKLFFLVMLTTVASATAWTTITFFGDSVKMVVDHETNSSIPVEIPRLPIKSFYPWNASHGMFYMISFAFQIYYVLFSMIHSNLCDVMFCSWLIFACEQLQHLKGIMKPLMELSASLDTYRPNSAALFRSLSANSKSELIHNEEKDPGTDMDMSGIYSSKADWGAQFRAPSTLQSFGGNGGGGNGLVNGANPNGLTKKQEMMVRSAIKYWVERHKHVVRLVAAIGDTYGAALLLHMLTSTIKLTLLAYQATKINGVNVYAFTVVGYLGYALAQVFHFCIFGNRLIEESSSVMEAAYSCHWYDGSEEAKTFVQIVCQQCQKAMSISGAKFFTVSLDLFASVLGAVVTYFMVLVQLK", "assay": "Antagonism of OLC12 activation of Orco in Xenopus oocytes", "conditions": "20µM OLC12, 10µM tryptamine", "method": "as §1, §2"}, "Agam\\Orco+Agam\\Or65": {"target": "Agam\\Orco+Agam\\Or65 (Anopheles gambiae, UniProt Q7QCC7)", "assay": "Antagonism of OLC12 activation of heteromeric OR in Xenopus oocytes", "conditions": "for IC50: read-out: IC 50 for inhibition of Agam\\Orco+Agam\\Or65 activation", "method": "as §1\nOdorant and Orco ligand induced currents were recorded under two-electrode voltage clamp, using an automated parallel electrophysiology system (OpusExpress 6000A, Molecular Devices). Oocytes were perfused with ND96 (in mM: 96 NaCl, 2 KCl, 1 CaCl 2, 1 MgCl 2, 5 HEPES, pH 7.5). Orco ligands were prepared as 50 or 100 mM stock solutions in DMSO and then diluted into ND96 on the day of the experiment. Odorants were prepared as 100 mM stock solutions in DMSO and then diluted into ND96. Unless otherwise noted, applications were for 60 sec at a flow rate of 1.0 ml/min, with extensive washing in ND96 at 4.6 ml/min between applications. Micropipettes were filled with 3 M KCl and had resistances of 0.2–2.0 MΩ. The holding potential was -70 mV. Current responses, filtered (4-pole, Bessel, low pass) at 20 Hz (-3 db) and sampled at 100 Hz, were captured and stored using OpusXpress 1.1 software (Molecular Devices).\nTo screen for agonist activity, oocytes were exposed to 30 sec applications of candidate compounds with 5 min washes between applications ( Figure 2A). For the concentration-response protocol ( Table 1), applications were for 20 sec at a flow rate of 1.65 ml/min. […]\nInitial analysis of electrophysiological data was done using Clampfit 9.1 software (Molecular Devices). […] Statistical significance (p<0.05) was assessed using a two-tailed unpaired t test, an F test, or a one-way analysis of variance followed by the Dunnett's post-test, as appropriate."}}, "note": "Where two headings read alike, the source gives them in different places.", "data": [{"smiles": "NCCc1c[nH]c2ccccc12", "note": "[tryptamine]", "values": [{"measurement": "inhibition of OLC12 activation of Orco", "setting": "Agam\\Orco", "value": "inhibited OLC12 activation of Orco from each of these three insect species"}, {"measurement": "inhibition of OLC12 activation of Orco", "setting": "Dmel\\Orco", "value": "inhibited OLC12 activation of Orco from each of these three insect species"}, {"measurement": "mechanism of inhibition of OLC12 activation", "setting": "Agam\\Orco+Agam\\Or65; Agam\\Orco+Agam\\Or65, 20µM vs 100µM OLC12", "value": "competitively inhibits OLC12 activation"}, {"measurement": "IC50", "setting": "Agam\\Orco+Agam\\Or65; activated by 20µM OLC12", "value": "2.9 ± 0.5", "unit": "µM"}, {"measurement": "IC50", "setting": "Agam\\Orco+Agam\\Or65; activated by 100µM OLC12", "value": "8.5 ± 1.1", "unit": "µM"}]}]}
